Assay results published in patent US20260297121A1, “MITHRAMYCIN (MTM) 2’ OXIMES” (University of Kentucky Research Foundation, priority 2023, published 2026).
Like-named read-outs stand apart in the source and are kept apart here.

Assays:
LNCap = assay: Cytotoxicity, resazurin fluorescence, LNCap; assay type: cell-based; conditions: Homo sapiens, LNCaP, read-out: GI50 LNCap
PC3 [1] = assay: Cytotoxicity, resazurin fluorescence, PC3; assay type: cell-based; conditions: Homo sapiens, PC-3, 72 h
Protocol: (§1) Exemplary compounds of the presently-disclosed subject matter were assessed for cytotoxicity (Table 5) in Ewing sarcoma (TC32) and non-Ewing (PC3 prostate cancer). […] Cells (1000-5000/well) were seeded in 96-well plates and allowed to attach and grow for 24 hr prior to adding compounds in half-log increments from 0.3 nM-10 μM. Cell viability was assessed after 72 hr continuous incubation with compounds using resazurin fluorescence. GI50 values were estimated using GraphPad Prism.

EWS cells = assay: Cytotoxicity, average over Ewing (EWS) cell panel; assay type: cell-based; conditions: Table 6; 72 hr; average of EWS cells
Protocol: as §1

ES8 = assay: Cytotoxicity, resazurin fluorescence, ES8; assay type: cell-based; conditions: Homo sapiens, ES8; Table 6; 72 hr; EWS cells
ES3 = assay: Cytotoxicity, resazurin fluorescence, ES3; assay type: cell-based; conditions: Table 6; 72 hr; EWS cells
TC71 = assay: Cytotoxicity, resazurin fluorescence, TC71; assay type: cell-based; conditions: Homo sapiens, TC-71; Table 6; 72 hr; EWS cells
HepG2 = assay: Cytotoxicity, resazurin fluorescence, HepG2; assay type: cell-based; conditions: Homo sapiens, read-out: GI50 HepG2
ES4 = assay: Cytotoxicity, resazurin fluorescence, ES4; assay type: cell-based; conditions: Table 6; 72 hr; EWS cells
A549 = assay: Cytotoxicity, resazurin fluorescence, A549; assay type: cell-based; conditions: Homo sapiens, read-out: GI50 A549
Non EWS cells = assay: Cytotoxicity, average over non-Ewing cell panel; assay type: cell-based; conditions: read-out: GI50 Average, Non EWS cells
Protocol: as §1

log P = assay type: physicochemical; conditions: Table 2
TC32 = assay: Cytotoxicity, resazurin fluorescence, TC32; assay type: cell-based; conditions: Homo sapiens, TC-32, 72 h
Protocol: as §1

[2] = Clearance (CL) / pharmacokinetics; assay type: in vivo, mice; conditions: mouse, plasma, iv; Table 2
Protocol: Exemplary compounds of the presently-disclosed subject matter were assessed for activity, including clearance, potency, and selectivity. Results from studies are compiled in Tables 2-4.
Desirable clearance was identified at lower values of mL hr^−1kg^−1 (e.g., about ≤10 mL hr^−1 kg^−1), desirable potency was identified at lower values of IC50 (e.g., about ≤10 nM in TC32 cells), and desired selectivity was identified at higher ratios of IC50 in PC3/IC50 in TC32 (e.g. about >10).
Pharmacokinetics of exemplary compounds of the presently-disclosed subject matter were studied in mice following bolus IV dosing. Groups of three mice were administered the compound(s) and blood samples were collected via saphenous bleed. Plasma was separated by centrifugation and extracted to quantitate analytes by LC/MS/MS. Sample analysis followed upon the system meeting system suitability criteria customary for fit for purpose analytical methods. FIG. 1A includes data comparing YL-C09 to mithramycin (MTM) dosed separately. FIG. 1B includes data for YL-B171, YL-C110 and MTM dosed in cassette format.

TC32 cells = assay: Potency IC50 in TC32 cells and selectivity; assay type: cell-based; conditions: Homo sapiens, TC-32, Table 2, read-out: IC50 TC32
ES7 = assay: Cytotoxicity, resazurin fluorescence, ES7; assay type: cell-based; conditions: Homo sapiens, ES7; Table 6; 72 hr; EWS cells
PC3 [3] = assay: IC50 in PC3 cells; assay type: cell-based; conditions: Homo sapiens, PC-3, read-out: IC50 PC2, Table 2; head prints PC2, text PC3
PANC1 = assay: Cytotoxicity, resazurin fluorescence, PANC1; assay type: cell-based; conditions: Homo sapiens, read-out: GI50 PANC1
5838 = assay: Cytotoxicity, resazurin fluorescence, 5838; assay type: cell-based; conditions: Table 6; 72 hr; express EWS-ERG
DU145 = assay: Cytotoxicity, resazurin fluorescence, DU145; assay type: cell-based; conditions: Homo sapiens, read-out: GI50 DU145
H460 = assay: Cytotoxicity, resazurin fluorescence, H460; assay type: cell-based; conditions: Homo sapiens, read-out: GI50 H460
RDES = assay: Cytotoxicity, resazurin fluorescence, RDES; assay type: cell-based; conditions: RD-ES; Table 6; 72 hr; EWS cells
SK.ES1 = assay: Cytotoxicity, resazurin fluorescence, SK.ES1; assay type: cell-based; conditions: Homo sapiens, SK-ES1; Table 6; 72 hr; EWS cells
Hela = assay: Cytotoxicity, resazurin fluorescence, Hela; assay type: cell-based; conditions: Homo sapiens, HeLa, read-out: GI50 Hela
A673 = assay: Cytotoxicity, resazurin fluorescence, A673; assay type: cell-based; conditions: Homo sapiens, A673; Table 6; 72 hr; EWS cells
BL1395 = assay: Cytotoxicity, resazurin fluorescence, BL1395; assay type: cell-based; conditions: read-out: GI50 BL1395
RD = assay: Cytotoxicity, 72 hr resazurin assay, RD embryonal rhabdomyosarcoma; assay type: cell-based; conditions: for GI50: Homo sapiens, RD, embryonal; for AUC RD: area under concentration-efficacy curve, possible range 0-20000
Description: (§2) A fibroblast cell line (HS68 (FIG. 2E)) was used as a non-tumor control. The area under the concentration-efficacy curve (AUC; possible range of 0-20000) was used to estimate an alternate metric to GI50 for cases of shallow efficacy (e.g., the limited effect in HS68 cells).

RH30 = assay: Cytotoxicity, 72 hr resazurin assay, RH30 alveolar rhabdomyosarcoma; assay type: cell-based; conditions: for GI50: Rh30, alveolar; for AUC RH30: area under concentration-efficacy curve, possible range 0-20000
Description: as §2

rhabdomyosarcoma cells = assay: Cytotoxicity, 72 hr resazurin assay, four rhabdomyosarcoma cell lines; assay type: cell-based; conditions: JR1, RD, RH30, RH41, read-out: GI50 range in the four cell lines tested
Description: as §2

RH41 = assay: Cytotoxicity, 72 hr resazurin assay, RH41 alveolar rhabdomyosarcoma; assay type: cell-based; conditions: for GI50: Homo sapiens, Rh41, alveolar; for AUC RH41: area under concentration-efficacy curve, possible range 0-20000
Description: as §2

JR1 = assay: Cytotoxicity, 72 hr resazurin assay, JR1 embryonal rhabdomyosarcoma; assay type: cell-based; conditions: for AUC JR1: area under concentration-efficacy curve, possible range 0-20000; for GI50: embryonal
Description: as §2

HS68 = assay: Cytotoxicity, 72 hr resazurin assay, HS68 fibroblast; assay type: cell-based; conditions: for GI50: Homo sapiens, Hs68, fibroblast, non-tumor control; for AUC HS68: area under concentration-efficacy curve, possible range 0-20000
Description: as §2

[4] = Table 6, non EWS cells, read-out: GI50 PC3
[5] = HepG2, Table 6, 72 hr, hepatic origin
[6] = A549, Table 6, 72 hr, non EWS cells
[7] = Table 6, 72 hr, average of non EWS cells
[8] = read-out: GI50 TC32, Table 6, EWS cells
[9] = PANC-1, Table 6, 72 hr, non EWS cells
[10] = NCI-H460, Table 6, 72 hr, non EWS cells
[11] = Table 6, 72 hr, lymphocyte origin

SMILES: COC(C(=NOCCNC(=O)c1cc2cc(Br)ccc2[nH]1)C(O)C(C)O)C1Cc2cc3cc(OC4CC(OC5CC(O)C(O)C(C)O5)C(O)C(C)O4)c(C)c(O)c3c(O)c2C(=O)C1OC1CC(OC2CC(OC3CC(C)(O)C(O)C(C)O3)C(O)C(C)O2)C(O)C(C)O1 (centres unmarked) [YL-B169]
- GI50 (LNCap; Table 6, 72 hr, non EWS cells): 239 nM
- GI50 (PC3 [1]; [4]): 34 nM
- GI50 (PC3 [1]; read-out: GI50 PC3, Table 5): 34 nM
- GI50 (EWS cells): 43.8 nM
- GI50 (ES8): 68.7 nM
- GI50 (ES3): 38.4 nM
- GI50 (TC71): 152 nM
- GI50 (HepG2; [5]): 306 nM
- GI50 (ES4): 25.1 nM
- GI50 (A549; [6]): 558 nM
- GI50 (Non EWS cells; [7]): 171 nM
- logP (log P): 2.37
- GI50 (TC32; read-out: GI50 TC32, Table 5): 18 nM
- GI50 (TC32; [8]): 18.4 nM
- clearance [2]: 0.467 mL/min/kg
- IC50 (TC32 cells): 1.16 nM
- GI50 (ES7): 25.6 nM
- IC50 (PC3 [3]): 20.6 nM
- GI50 (PANC1; [9]): 62.1 nM
- GI50 5838: 30.2 nM
- GI50 (DU145; DU-145, Table 6, 72 hr, non EWS cells): 49.9 nM
- GI50 (H460; [10]): 78.7 nM
- GI50 (RDES): 29.1 nM
- GI50 (SK.ES1): 24.4 nM
- GI50 (Hela; Table 6, 72 hr, non EWS cells): 176 nM
- GI50 (A673): 26 nM
- GI50 (BL1395; [11]): 31.3 nM

SMILES: COC(C(=NOCc1cc2ccccc2[nH]1)C(O)C(C)O)C1Cc2cc3cc(OC4CC(OC5CC(O)C(O)C(C)O5)C(O)C(C)O4)c(C)c(O)c3c(O)c2C(=O)C1OC1CC(OC2CC(OC3CC(C)(O)C(O)C(C)O3)C(O)C(C)O2)C(O)C(C)O1 (centres unmarked) [YL-C09]
- GI50 (LNCap; Table 6, 72 hr, non EWS cells): 63.3 nM
- GI50 (PC3 [1]; [4]): 19.3 nM
- GI50 (EWS cells): 21.1 nM
- GI50 (ES8): 31.5 nM
- GI50 (ES3): 19.2 nM
- GI50 (TC71): 11.5 nM
- GI50 (RD): 20.7 nM
- AUC RD (RD): 8443
- GI50 (RH30): 24.3 nM
- AUC RH30 (RH30): 7400
- GI50 (HepG2; [5]): 80.1 nM
- GI50 (ES4): 16.6 nM
- GI50 (A549; [6]): 22.6 nM
- GI50 (rhabdomyosarcoma cells): 15 to 25 nM
- GI50 (Non EWS cells; [7]): 34.5 nM
- logP (log P): 1.9
- GI50 (TC32; read-out: GI50 TC32, Table 5): 17 nM
- IC50 (TC32 cells): 1.96 nM
- GI50 (ES7): 14.5 nM
- IC50 (PC3 [3]): 5.65 nM
- GI50 (RH41): 24.1 nM
- AUC RH41 (RH41): 9239
- GI50 (PANC1; [9]): 33.4 nM
- AUC JR1 (JR1): 8554
- GI50 (JR1): 15 nM
- GI50 5838: 27.5 nM
- GI50 (HS68): 1240 nM
- AUC HS68 (HS68): 15517
- GI50 (H460; [10]): 21.5 nM
- GI50 (RDES): 16.8 nM
- GI50 (SK.ES1): 18 nM
- GI50 (Hela; Table 6, 72 hr, non EWS cells): 27.1 nM
- GI50 (A673): 38.1 nM
- GI50 (BL1395; [11]): 24.1 nM

SMILES: COC(C(=NOCCNC(=O)c1[nH]c2ccc(Cl)cc2c1-c1c(C)noc1C)C(O)C(C)O)C1Cc2cc3cc(OC4CC(OC5CC(O)C(O)C(C)O5)C(O)C(C)O4)c(C)c(O)c3c(O)c2C(=O)C1OC1CC(OC2CC(OC3CC(C)(O)C(O)C(C)O3)C(O)C(C)O2)C(O)C(C)O1 (centres unmarked) [YL-C110]
- GI50 (LNCap; 72 h): 44.3 nM
- GI50 (PC3 [1]; read-out: GI50 PC3, Table 5): 27 nM
- GI50 (PC3 [1]; read-out: GI50 PC3, Table 6, non EWS cells): 26.8 nM
- GI50 (EWS cells): 17.6 nM
- GI50 (ES8): 16.6 nM
- GI50 (ES3): 18.8 nM
- GI50 (TC71): 10.7 nM
- GI50 (RD): 22.4 nM
- AUC RD (RD): 8367
- GI50 (RH30): 21 nM
- AUC RH30 (RH30): 7413
- GI50 (HepG2; HepG2, 72 h): 466 nM
- GI50 (ES4): 10.1 nM
- GI50 (A549; A549, 72 h): 46.7 nM
- GI50 (rhabdomyosarcoma cells): 15 to 25 nM
- GI50 (Non EWS cells; 72 h): 96.9 nM
- logP (log P): 2.56
- GI50 (TC32; read-out: GI50 TC32, Table 5): 14 nM
- GI50 (TC32; [8]): 14.3 nM
- IC50 (TC32 cells): 2.18 nM
- GI50 (ES7): 13.6 nM
- IC50 (PC3 [3]): 7.1 nM
- GI50 (RH41): 24.7 nM
- AUC RH41 (RH41): 9477
- GI50 (PANC1; PANC-1, 72 h): 87.5 nM
- AUC JR1 (JR1): 8535
- GI50 (JR1): 14.9 nM
- GI50 5838: 26.6 nM
- GI50 (HS68): 33.6 nM
- AUC HS68 (HS68): 16245
- GI50 (DU145; DU-145, 72 h): 16.2 nM
- GI50 (H460; NCI-H460, 72 h): 33.2 nM
- GI50 (RDES): 13.3 nM
- GI50 (SK.ES1): 18.8 nM
- GI50 (Hela; 72 h): 102 nM
- GI50 (A673): 33.5 nM
- GI50 (BL1395; Lymphocyte, 72 h): 49.4 nM
